{
  "source": "PubChem BioAssay AID743310",
  "about": "(Sanford-Burnham Center for Chemical Genomics, 2014)",
  "target": "Dual specificity protein phosphatase 3 (Homo sapiens) (UniProt P51452)",
  "sequence (P51452 whole entry, looked up)": "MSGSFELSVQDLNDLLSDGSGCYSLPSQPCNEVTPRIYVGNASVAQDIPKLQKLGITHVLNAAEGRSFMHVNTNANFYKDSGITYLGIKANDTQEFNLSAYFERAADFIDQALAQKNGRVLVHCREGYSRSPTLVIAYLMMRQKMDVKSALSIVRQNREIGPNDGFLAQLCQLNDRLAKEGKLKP",
  "assay": "VHR1 phosphatase inhibition, selectivity check, SAR follow-up, selectivity assay for LMPTP inhibitor project, biochemical, fluorescence, OMFP substrate (AID 743310)",
  "conditions": "recombinant VHR, OMFP fluorogenic substrate, 50 min",
  "note": "Activity calls are given as the source filed them.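 The calls were made as follows: active = IC50 at or below 20 µM; inactive = the rest.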",
  "data": [
    {"smiles": "COc1ccccc1CNc1ncnc2ccsc12", "values": [
      {"measurement": "IC50", "result": "> 80 µM (inactive)"}
    ]},
    {"smiles": "COc1cc2nc(-c3ccccc3)cc(NCCCN3CCCCC3)c2cc1OC", "values": [
      {"measurement": "IC50", "result": "> 80 µM (inactive)"}
    ]},
    {"smiles": "CN1CCN(c2nc(-c3ccccc3)nc3ccccc23)CC1", "values": [
      {"measurement": "IC50", "result": "> 80 µM (inactive)"}
    ]},
    {"smiles": "c1ccc(-c2cc(NCCN3CCCCC3)c3ccccc3n2)cc1", "values": [
      {"measurement": "IC50", "result": "> 80 µM (inactive)"}
    ]},
    {"smiles": "c1ccc(-c2nc(NCCCn3ccnc3)c3ccccc3n2)cc1", "values": [
      {"measurement": "IC50", "result": "> 80 µM (inactive)"}
    ]},
    {"smiles": "CCCCNc1nc(-c2ccccc2)nc2ccccc12", "values": [
      {"measurement": "IC50", "result": "> 80 µM (inactive)"}
    ]},
    {"smiles": "O=C(OCCNc1nc(-c2ccccc2)nc2ccccc12)c1ccncc1", "values": [
      {"measurement": "IC50", "result": "> 80 µM (inactive)"}
    ]},
    {"smiles": "c1ccc(-c2cc(NCCCN3CCOCC3)c3ccccc3n2)cc1", "values": [
      {"measurement": "IC50", "result": "> 80 µM (inactive)"}
    ]},
    {"smiles": "CC(C)Nc1nc(-c2ccccc2)nc2ccccc12", "values": [
      {"measurement": "IC50", "result": "> 80 µM (inactive)"}
    ]},
    {"smiles": "Clc1ccc(-c2cc(NCCCN3CCCCC3)c3ccccc3n2)cc1", "values": [
      {"measurement": "IC50", "result": "> 80 µM (inactive)"}
    ]},
    {"smiles": "c1ccc(-c2cc(NCCCN3CCCCC3)c3ccccc3n2)cc1", "values": [
      {"measurement": "IC50", "result": "> 80 µM (inactive)"}
    ]},
    {"smiles": "c1ccc(-c2nc(NCCCN3CCCCC3)c3ccccc3n2)cc1", "values": [
      {"measurement": "IC50", "result": "> 80 µM (inactive)"}
    ]},
    {"smiles": "Cc1ccc2nc(-c3ccccc3)cc(NCCCN3CCCCC3)c2c1", "values": [
      {"measurement": "IC50", "result": "> 80 µM (inactive)"}
    ]},
    {"smiles": "O=C(OCCNc1nc(-c2ccccc2)nc2ccccc12)c1cccnc1", "values": [
      {"measurement": "IC50", "result": "> 80 µM (inactive)"}
    ]},
    {"smiles": "COc1cccc(-c2cc(NCCCN3CCCCC3)c3ccccc3n2)c1", "values": [
      {"measurement": "IC50", "result": "> 80 µM (inactive)"}
    ]},
    {"smiles": "c1ccc(-c2nc(NCCN3CCCCC3)c3ccccc3n2)cc1", "values": [
      {"measurement": "IC50", "result": "> 80 µM (inactive)"}
    ]},
    {"smiles": "Cc1ccc(-c2cc(NCCCN3CCCCC3)c3ccccc3n2)cc1", "values": [
      {"measurement": "IC50", "result": "> 80 µM (inactive)"}
    ]},
    {"smiles": "c1ccc(-c2nc(NC3CCCC3)c3ccccc3n2)cc1", "values": [
      {"measurement": "IC50", "result": "> 80 µM (inactive)"}
    ]},
    {"smiles": "Clc1ccccc1-c1cc(NCCCN2CCCCC2)c2ccccc2n1", "values": [
      {"measurement": "IC50", "result": "> 80 µM (inactive)"}
    ]},
    {"smiles": "c1ccc2c(NCCCN3CCCCC3)cc(-c3ccncc3)nc2c1", "values": [
      {"measurement": "IC50", "result": "> 80 µM (inactive)"}
    ]},
    {"smiles": "CC1CCN(c2nc(-c3ccccc3)nc3ccccc23)CC1", "values": [
      {"measurement": "IC50", "result": "> 80 µM (inactive)"}
    ]},
    {"smiles": "Nc1nc(N)c(Cc2ccc(Cl)cc2Cl)c(N)n1", "values": [
      {"measurement": "IC50", "result": "> 80 µM (inactive)"}
    ]},
    {"smiles": "c1ccc(-c2cc(NCCN3CCCC3)c3ccccc3n2)cc1", "values": [
      {"measurement": "IC50", "result": "> 80 µM (inactive)"}
    ]},
    {"smiles": "Clc1cccc(Cl)c1Cn1cnc(=NCc2ccco2)c2[nH]cnc21", "values": [
      {"measurement": "IC50", "result": "> 80 µM (inactive)"}
    ]},
    {"smiles": "c1ccc(-c2nc(N3CCSCC3)c3ccccc3n2)cc1", "values": [
      {"measurement": "IC50", "result": "> 80 µM (inactive)"}
    ]},
    {"smiles": "Cc1c(CCC(=O)O)c(=O)oc2c(C)c(OCc3ccccc3Cl)ccc12", "values": [
      {"measurement": "IC50", "result": 5.21, "unit": "µM"}
    ]},
    {"smiles": "c1ccc(-c2nc(N3CCOCC3)c3ccccc3n2)cc1", "values": [
      {"measurement": "IC50", "result": "> 80 µM (inactive)"}
    ]},
    {"smiles": "Fc1ccc(-c2cc(NCCCN3CCCCC3)c3ccccc3n2)cc1", "values": [
      {"measurement": "IC50", "result": "> 80 µM (inactive)"}
    ]},
    {"smiles": "CN(C)CCNc1cc(-c2ccccc2)nc2ccccc12", "values": [
      {"measurement": "IC50", "result": "> 80 µM (inactive)"}
    ]},
    {"smiles": "c1ccc(-c2nc(NCCN3CCCC3)c3ccccc3n2)cc1", "values": [
      {"measurement": "IC50", "result": "> 80 µM (inactive)"}
    ]},
    {"smiles": "Brc1ccc2nc(-c3ccccc3)cc(NCCCN3CCCCC3)c2c1", "values": [
      {"measurement": "IC50", "result": "> 80 µM (inactive)"}
    ]},
    {"smiles": "CC(C)CNc1nc(-c2ccccc2)nc2ccccc12", "values": [
      {"measurement": "IC50", "result": "> 80 µM (inactive)"}
    ]},
    {"smiles": "CCc1nc(N)nc(N)c1-c1ccc(Cl)cc1", "values": [
      {"measurement": "IC50", "result": "> 80 µM (inactive)"}
    ]},
    {"smiles": "c1ccc(-c2cc(OCCCN3CCCCC3)c3ccccc3n2)cc1", "values": [
      {"measurement": "IC50", "result": "> 80 µM (inactive)"}
    ]},
    {"smiles": "Cc1cccc(-c2nc(NCCCN3CCOCC3)c3ccccc3n2)c1", "values": [
      {"measurement": "IC50", "result": "> 80 µM (inactive)"}
    ]},
    {"smiles": "c1ccc(-c2nc(NC3CCCCC3)c3ccccc3n2)cc1", "values": [
      {"measurement": "IC50", "result": "> 80 µM (inactive)"}
    ]},
    {"smiles": "c1ccc(-c2cc(SCCCN3CCCCC3)c3ccccc3n2)cc1", "values": [
      {"measurement": "IC50", "result": "> 80 µM (inactive)"}
    ]},
    {"smiles": "c1ccc(-c2nc(NCc3cccnc3)c3ccccc3n2)cc1", "values": [
      {"measurement": "IC50", "result": "> 80 µM (inactive)"}
    ]},
    {"smiles": "Fc1ccccc1-c1nc(NCCCN2CCOCC2)c2ccccc2n1", "values": [
      {"measurement": "IC50", "result": "> 80 µM (inactive)"}
    ]},
    {"smiles": "COc1ccccc1-c1cc(NCCCN2CCCCC2)c2ccccc2n1", "values": [
      {"measurement": "IC50", "result": "> 80 µM (inactive)"}
    ]},
    {"smiles": "c1ccc(-c2cc(NCCN3CCOCC3)c3ccccc3n2)cc1", "values": [
      {"measurement": "IC50", "result": "> 80 µM (inactive)"}
    ]},
    {"smiles": "Fc1cccc(-c2cc(NCCCN3CCCCC3)c3ccccc3n2)c1", "values": [
      {"measurement": "IC50", "result": "> 80 µM (inactive)"}
    ]},
    {"smiles": "c1ccc(-c2nc(NCCCN3CCOCC3)c3ccccc3n2)cc1", "values": [
      {"measurement": "IC50", "result": "> 80 µM (inactive)"}
    ]},
    {"smiles": "FC(F)(F)c1cccc(-c2cc(NCCCN3CCCCC3)c3ccccc3n2)c1", "values": [
      {"measurement": "IC50", "result": "> 80 µM (inactive)"}
    ]},
    {"smiles": "c1ccc(-c2cc(N3CCCCC3)c3ccccc3n2)cc1", "values": [
      {"measurement": "IC50", "result": "> 80 µM (inactive)"}
    ]},
    {"smiles": "Fc1ccccc1-c1nc(NC2CCCC2)c2ccccc2n1", "values": [
      {"measurement": "IC50", "result": "> 80 µM (inactive)"}
    ]},
    {"smiles": "CN(C)CCNc1nc(-c2ccccc2)nc2ccccc12", "values": [
      {"measurement": "IC50", "result": "> 80 µM (inactive)"}
    ]},
    {"smiles": "COc1ccc(-c2cc(NCCCN3CCCCC3)c3ccccc3n2)cc1", "values": [
      {"measurement": "IC50", "result": "> 80 µM (inactive)"}
    ]},
    {"smiles": "CC(C)OCCCNc1nc(-c2ccccc2)nc2ccccc12", "values": [
      {"measurement": "IC50", "result": "> 80 µM (inactive)"}
    ]},
    {"smiles": "Cc1ccc(-c2nc(NCc3cccnc3)c3ccccc3n2)cc1", "values": [
      {"measurement": "IC50", "result": "> 80 µM (inactive)"}
    ]},
    {"smiles": "Clc1cccc(-c2cc(NCCCN3CCCCC3)c3ccccc3n2)c1", "values": [
      {"measurement": "IC50", "result": "> 80 µM (inactive)"}
    ]},
    {"smiles": "c1ccc(-c2nc(NC3CC3)c3ccccc3n2)cc1", "values": [
      {"measurement": "IC50", "result": "> 80 µM (inactive)"}
    ]},
    {"smiles": "c1ccc(-c2nc(N3CCCCCC3)c3ccccc3n2)cc1", "values": [
      {"measurement": "IC50", "result": "> 80 µM (inactive)"}
    ]},
    {"smiles": "CCN(CC)c1nc(-c2ccccc2)nc2ccccc12", "values": [
      {"measurement": "IC50", "result": "> 80 µM (inactive)"}
    ]},
    {"smiles": "c1ccc(-c2nc(NCCN3CCOCC3)c3ccccc3n2)cc1", "values": [
      {"measurement": "IC50", "result": "> 80 µM (inactive)"}
    ]},
    {"smiles": "Cc1ccc(-c2nc(NCCN3CCOCC3)c3ccccc3n2)cc1", "values": [
      {"measurement": "IC50", "result": "> 80 µM (inactive)"}
    ]},
    {"smiles": "c1ccc(-c2nc(N3CCCC3)c3ccccc3n2)cc1", "values": [
      {"measurement": "IC50", "result": "> 80 µM (inactive)"}
    ]},
    {"smiles": "Fc1ccc2nc(-c3ccccc3)cc(NCCCN3CCCCC3)c2c1", "values": [
      {"measurement": "IC50", "result": "> 80 µM (inactive)"}
    ]},
    {"smiles": "c1ccc(-c2nc(N3CCCCC3)c3ccccc3n2)cc1", "values": [
      {"measurement": "IC50", "result": "> 80 µM (inactive)"}
    ]}
  ]
}
